Legend:
rats [1] = experiment: Spontaneous Locomotor Activity (SMA) Test; assay type: in vivo; design: key: Increase = statistically significant (Mann Whitney U test p < 0.05) increase in horizontal activity and vertical movements indicating lack of sedation or motor impairment at 10 mg/kg po; settings: Long-Evans Hooded rats, 10 mg/kg po, 50 minutes after administration; decrease = sedation
Procedure: (§1) Male Long-Evans Hooded rats weighing 180 to 200 grams were purchased from Charles River Inc (Portage MI). The rats were housed in groups of four at an ambient temperature of 21 to 23° C. in a room with an automated 12/12 hour light/dark cycle. The rats had access to water and a commercial rodent food ad libitum. At the time of the experiment the rats weighed 220 to 350 grams.
(§2) The assay was run with test compound or vehicle administered to the animals at time zero. Fifty minutes after administration, the animals were tested in the SMA (Spontaneous Locomotor Activity), which was completed in 10 minutes. Immediately following SMA testing, the rats were moved and tested in the EPM (elevated Plus Maze), which was also completed in ten minutes. Test compounds were suspended in an aqueous vehicle (MC) comprised of 0.5% Methylcellulose and administered p.o.
The test apparatus consisted of a plastic cubicle (40.6 cm, length; 40.6 cm, width; 30.5 cm, height) that was placed in the center of a main frame. Photocell sensors (8 beams from front to back and 8 beams from side to side) were built into the sides of the frame for monitoring horizontal movement. The photocells were located at right angles to each other, projecting horizontal infrared beams of light 5 cm apart and 2 cm above the floor to measure horizontal activity, and 5 cm apart and 14 cm above the floor to measure vertical activity. Rats were divided into groups (N=8 to 12). Test compound or vehicle was administered orally by gavage in a dose volume equivalent to 5 mL/kg. At 50 minutes after administration each rat was placed into a separate plastic cubicle and spontaneous exploratory activity was recorded for 10 minutes. Horizontal and vertical movements of the rats were recorded by counting the number of times the beams of light were interrupted (horizontal and vertical counts). Collection of the data and preliminary data analysis was automated. A drug-induced decrease in spontaneous horizontal or vertical motor activity was regarded as an indication of sedation.
HA data were analyzed for statistical significance between drug and vehicle-treated groups that were administered either the vehicle or each dose of the test compound by a one-way analysis of variance. Then Dunnett's multiple comparison method was used to test for a reduction (p<0.05, 1-tailed) in the average number of HA counts or VM counts in drug-treated groups, compared to a concurrently run vehicle-treated group. If the probability was less than 5% (p<0.05) that a decrease in HA and/or VM in the drug-treated group compared to a concurrently run vehicle-treated group was due to chance, then the dose of the test compound was considered to have sedative activity. Mann-Whitney T-Test is used in cases where the distribution of the data is non-gaussian.

[2] = test system: serotonin neural pathways; experiment: DOI Headshake Model; assay type: in vivo; design: key: Active: A statistically significant decrease in the number of headshakes induced by the administration of DOI in the mice given the test compound relative to the mice given the control was an indication of modulation of the serotonin neural pathways and thus an indication of an active compound; settings: DOI-induced headshakes, mice (NIH Swiss; starred compounds also CD-1); for Number of Headshakes, IP Admin: i.p., doses up to 100 mg/kg; for Number of Headshakes, Oral Admin.: doses up to 40 mg/kg
Procedure: Male CD-1 or NIH-Swiss mice were fasted overnight. The mice were given control vehicle or test compound by the oral or intraperitoneal (i.p.) routes of administration at doses up to 40 mg/kg orally and up to 100 mg/kg i.p. Administration time was denoted as t0. At each of several selected intervals after t0 (at about 45 min, 1 h, 2 h, 4 h, 6 h, 8 h, 24 h after administration), separate groups of mice were given 1-{2,5-dimethoxy-4-iodophenyl]-2-aminopropane (DOI), a known serotonin receptor type-2A agonist, by the intraperitoneal route of administration route. […] (Separate groups of mice were tested at each time interval.) Peak activity time, denoted as tp, was determined as the time of the greatest reduction in the number of DOI-induced headshakes for mice given the test compound compared to the number of headshakes for the mice given the control, measured at the same time interval.
A statistically significant decrease in the number of headshakes induced by the administration of DOI in the mice given the test compound relative to the mice given the control was an indication of modulation of the serotonin neural pathways and thus an indication of an active compound.
In vivo biological activity was measured for select compounds of the present invention as listed in Table 11, using the procedures outlined above. Starred (*) compounds were tested on both male CD-1 mice and NIH Swiss mice, all other compounds were tested using Swiss NIH mice.

[3] = test system: Senktide-induced headshake; experiment: Reversal of Senktide-induced head shake in mice; assay type: in vivo; design: key: Active = a statistically significant (Mann-Whitney t-test (one-tailed)) reduction in the headshakes produced by senktide (5 mg/kg), in animals dosed with test compound 10 mg/kg po; settings: NIH-Swiss mice, test compound 10 mg/kg po, senktide 5 mg/kg sc 45 min later, 10 min count
Procedure: The in vivo assay measuring the reversal of Senktide-induced headshake in mice has been previously described in the literature by Sarau, H. M., et al in J. Pharmacol. Exp. Therapeutics (2000), 295 pp 373-381.
Briefly, overnight fasted NIH-Swiss mice weighing 18-21 gms were treated with test compound or vehicle by the oral (gavage) route, at various concentrations. Forty five (45) minutes after administration, the animals are injected subcutaneously (sc) with Senktide at a concentration of 5 mg/kg. Immediately after administration of the Senktide, the animals are randomized and laced into isolated observation chambers and the number of headshakes per recorded over a ten (10) minute period. A decrease in the number of Senktide induced headshakes for test compound treated animals as compared with vehicle treated animals (analysis completed using Mann-Whitney t-test (one tailed)) was taken as an indication of anxiolytic activity for the compound.
Representative compounds of the instant invention were tested for reversal of Senktide-induced headshakes in mice, with results as listed in Table 12.

rats [4] = experiment: Elevated Plus Maze (EPM) Test; assay type: in vivo; design: key: Active = statistically significant (Mann Whitney U test p < 0.05) increase in open arm time or open arm entries at 10 mg/kg po; settings: Long-Evans Hooded rats, 10 mg/kg po, one hour after dosing
Procedure: as §1, §2
The elevated plus maze (EPM) is the most widely used animal test of anxiety. The fully quantitative computerized EPM has validity as an anxiety model from the theoretical basis and pharmacological responses. The EPM also has high ecological validity since it studies the spontaneous behavioral patterns in response to interactions with the environment.
The procedure is based on the natural aversion of rodents to explore open and high places, as well as their innate tendency for thigmotaxis. When rats are placed on the elevated-plus maze, they have a normal tendency to remain in the enclosed arms of the maze and avoid venturing into the open arms. Animals treated with typical or atypical anxiolytics show an increase in the percentage of time spent (% Time) and/or the percentage of entries made (% Entries) into the open arms.
The test apparatus used consisted of a black plastic maze with two open arms and two arms with 40 cm high walls (enclosed arms) of equal length (50 cm) extending from the center at right angles, such that arms of similar type were opposite each other. Each plus-maze was elevated approximately 60 cm above the floor. Infrared photo-beams that crossed the entrance of each arm and the center of the maze detected the exploratory activity of an animal in the maze. […]
Anxiolytic activity of a test compound was quantified using two parameters: a) the percent of total time spent by a rat in one of the two open arms of the apparatus (% open arm time) which was calculated as follows: [formula] • and b) the number of times a rat entered the open arms relative to the total entries into all arms and the center area (% open arm entries), calculated as follows: [formula]
Data were analyzed for statistical significance between drug and vehicle-treated groups via one tailed Mann-Whitney T-Test. […]

cisplatin induced emesis = experiment: Anti-emetic test, cisplatin induced emesis; assay type: in vivo, shrew; settings: shrews, 20 mg/kg, administered subcutaneously; statistically significant reduction
Procedure: The effectiveness of a test compound to inhibit emesis in the shrew were determined according to the procedure described in Darmani, N. A. Serotonin 5-HT3 receptor antagonists prevent cisplatin-induced emesis in Cryptosis parva: a new experimental model of emesis. J Neural. Transm. 1998, 105, 1143-1154.

SMILES | SMA Horizontal Activity (rats [1]) | SMA Vertical Movement (rats [1]) | Number of Headshakes, IP Admin [2] | Number of Headshakes, Oral Admin. [2] | Senktide Headshake Assay [3] | Increase % Open Arm Entries (rats [4]) | Increase % Open Arm Time (rats [4]) | cisplatin induced emesis in vivo test (reduction in cisplatin induced retching behavior) (cisplatin induced emesis)
O=C(CC1CCN(C(=O)c2cccc(C#Cc3ccccn3)c2)CC1)Nc1ccccc1 [Compound 10, N-phenyl-1-[3-(2-pyridinylethynyl)benzoyl]4-piperdineacetamide] | Increase | Increase | Active | Active | Active | Active | Active | active
O=C(CC1CCN(C(=O)c2ccc(/C=C\c3ccncc3)cc2)CC1)Nc1ccccc1 [Compound 73, N-phenyl-1-[4-[(Z)-2-(4-pyridinyl)ethenyl]benzoyl]-4-piperidineacetamide] | – | – | Active | Active | – | – | – | –
O=C(CC1CCN(C(=O)c2cccc(C#Cc3ccccn3)c2)CC1)Nc1ccc(O)cc1 [Compound 75, N-(4-hydroxyphenyl)-1-[3-(2-pyridinylethynyl)benzoyl]-4-piperidineacetamide] | Increase | Increase | Active | Active | – | Active | Active | –
O=C(CN1CCN(C(=O)c2cccc(C#Cc3ccccn3)c2)CC1)Nc1ccccc1 [Compound 106, N-phenyl-4-[3-(2-pyridinylethynyl)benzoyl]-1-piperazineacetamide] | – | – | Active | Active | – | – | – | –
O=C(CN1CCN(C(=O)c2cccc(NCc3cc(C(F)(F)F)cc(C(F)(F)F)c3)c2)CC1)Nc1ccccc1 [Compound 501, 4-[3-[[[3,5-bis(trifluoromethyl)phenyl]methyl]amino]benzoyl]-N-phenyl-1-piperazineacetamide] | – | – | – | Inactive | – | – | – | –
